Experimental data from patent US8937078B2, “Quinazolinones as prolyl hydroxylase inhibitors” (Janssen Pharmaceutica NV, priority 2009, dated 2015).

What was measured:
human PHD2 (PHD2181-417) = target: T1, human PHD2 (PHD2181-417) (Homo sapiens, UniProt Q9GZT9); assay: PHD enzymatic assay ([14C]-succinic acid production); assay type: biochemical; conditions: PHD2181-417, HIF-1α peptide 10 μM, average of results; read-out: Enzyme pIC50 (converted)
T1 construct: Smt (SUMO) tag (cleaved yes); made in house; host or cells: E. coli BL21 (pBAD vector)
T1 sequence (Q9GZT9 181-417): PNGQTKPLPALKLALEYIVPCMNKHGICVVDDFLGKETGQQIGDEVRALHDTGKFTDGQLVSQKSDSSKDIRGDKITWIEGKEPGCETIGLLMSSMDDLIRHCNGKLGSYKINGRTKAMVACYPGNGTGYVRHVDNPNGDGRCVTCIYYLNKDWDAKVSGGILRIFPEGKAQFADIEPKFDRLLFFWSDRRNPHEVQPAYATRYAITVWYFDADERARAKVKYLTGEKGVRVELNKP
In short: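 Activity measured as [14C]-succinic acid formed from [5-14C]-2-oxoglutarate over 10 minutes, with peptide substrate at 10 μM, in Tris-HCl pH 7.5 buffer containing catalase, DTT and ascorbate. Unreacted oxoglutarate removed by DNP derivatisation; supernatant beta-counted.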

Hep-3B cells = assay: Cellular assay: erythropoietin secretion in Hep-3B cells; assay type: cell-based, human; conditions: Homo sapiens, Hep3B, 100 μM compound, 24 hours, percent of EPO secretion relative to assay control compound 7-[(4-Chloro-phenyl)-(5-methyl-isoxazol-3-ylamino)-methyl]-quinolin-8-ol, read-out: Cellular % EPO Stimulation
In short: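 Hep-3B cells in DMEM with 10% FBS, treated 24 h after plating with compounds at 100 μM final for a further 24 h. Secreted EPO in supernatant measured by MSD electrochemiluminescence sandwich immunoassay with anti-EPO detection antibody.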

Compound	IC50 (human PHD2 (PHD2181-417)) [nM]	Emax at 100 µM (Hep-3B cells) [%]
CN(C)c1ccc2c(=O)[nH]c(-n3cc(C(=O)O)cn3)nc2c1 [Example 150, 1-(7-Dimethylamino-4-oxo-3,4-dihydro-quinazolin-2-yl)-1H-pyrazole-4-carboxylic acid]	158	24
O=C(O)c1cnn(-c2nc3c4c(ccc3c(=O)[nH]2)CCCC4)c1 [Example 142, 1-(4-Oxo-3,4,7,8,9,10-hexahydro-benzo[h]quinazolin-2-yl)-1H-pyrazole-4-carboxylic acid]	251	23
Cc1cccc2c(=O)[nH]c(-n3cc(C(=O)O)cn3)nc12 [Example 9, 1-(8-Methyl-4-oxo-3,4-dihydro-quinazolin-2-yl)-1H-pyrazole-4-carboxylic acid]	79.4	49
O=C(O)c1cnn(-c2nc3ccc(NCc4cccc(Cl)c4)cc3c(=O)[nH]2)c1 [Example 182, 1-[6-(3-Chloro-benzylamino)-4-oxo-3,4-dihydro-quinazolin-2-yl]-1H-pyrazole-4-carboxylic acid]	25.1	26
O=C(O)c1cnn(-c2nc3ccc(COc4ccccc4)cc3c(=O)[nH]2)c1 [Example 74, 1-(4-Oxo-6-phenoxymethyl-3,4-dihydro-quinazolin-2-yl)-1H-pyrazole-4-carboxylic acid]	31.6	35
O=C(O)c1cnn(-c2nc3c4c(ccc3c(=O)[nH]2)OCCO4)c1 [Example 138, 1-(8-Oxo-2,3,7,8-tetrahydro-1,4-dioxa-5,7-diaza-phenanthren-6-yl)-1H-pyrazole-4-carboxylic acid]	251	40
O=C(O)c1cnn(-c2nc3ccc(Oc4ccccc4)cc3c(=O)[nH]2)c1 [Example 20, 1-(4-Oxo-6-phenoxy-3,4-dihydro-quinazolin-2-yl)-1H-pyrazole-4-carboxylic acid]	25.1	104
O=C(O)c1cnn(-c2nc3c(Oc4ccccc4)cccc3c(=O)[nH]2)c1 [Example 112, 1-(4-Oxo-8-phenoxy-3,4-dihydro-quinazolin-2-yl)-1H-pyrazole-4-carboxylic acid]	158	18
O=C(O)c1cnn(-c2nc3ccc(NS(=O)(=O)c4ccccc4)cc3c(=O)[nH]2)c1 [Example 169, 1-(6-Benzenesulfonylamino-4-oxo-3,4-dihydro-quinazolin-2-yl)-1H-pyrazole-4-carboxylic acid]	25.1	34
Cc1cccc(-c2ccc3c(=O)[nH]c(-n4cc(C(=O)O)cn4)nc3c2)c1 [Example 189, 1-(4-Oxo-7-m-tolyl-3,4-dihydro-quinazolin-2-yl)-1H-pyrazole-4-carboxylic acid]	50.1	25
O=C(O)c1cnn(-c2nc3cc(F)c(Oc4cc(Cl)ccc4Cl)cc3c(=O)[nH]2)c1 [Example 87, 1-[6-(2,5-dichloro-phenoxy)-7-fluoro-4-oxo-3,4-dihydro-quinazolin-2-yl]-1H-pyrazole-4-carboxylic acid]	20	84
Cc1ccc(Oc2cc3c(=O)[nH]c(-n4cc(C(=O)O)cn4)nc3cc2F)cc1C [Example 88, 1-[6-(3,4-dimethyl-phenoxy)-7-fluoro-4-oxo-3,4-dihydro-quinazolin-2-yl]-1H-pyrazole-4-carboxylic acid]	15.8	95
O=C(O)c1cnn(-c2nc3cc(Cl)c(OC(F)(F)F)cc3c(=O)[nH]2)c1 [Example 22, 1-(7-Chloro-4-oxo-6-trifluoromethoxy-3,4-dihydro-quinazolin-2-yl)-1H-pyrazole-4-carboxylic acid]	31.6	61
O=C(O)c1cnn(-c2nc3cc(Sc4ccc(Cl)cc4)ccc3c(=O)[nH]2)c1 [Example 79, 1-[7-(4-Chloro-phenylsulfanyl)-4-oxo-3,4-dihydro-quinazolin-2-yl]-1H-pyrazole-4-carboxylic acid]	39.8	6
O=C(O)c1cnn(-c2nc3ccc(C4CCCCC4)cc3c(=O)[nH]2)c1 [Example 21, 1-(6-Cyclohexyl-4-oxo-3,4-dihydro-quinazolin-2-yl)-1H-pyrazole-4-carboxylic acid]	25.1	84
O=C(O)c1cnn(-c2nc3cc(Cl)c(Oc4cccc5ccccc45)cc3c(=O)[nH]2)c1 [Example 53, 1-[7-Chloro-6-(naphthalen-1-yloxy)-4-oxo-3,4-dihydro-quinazolin-2-yl]-1H-pyrazole-4-carboxylic acid]	31.6	45
O=C(O)c1cnn(-c2nc3ccc(Cl)cc3c(=O)[nH]2)c1 [Example 153, 1-(6-Chloro-4-oxo-3,4-dihydro-quinazolin-2-yl)-1H-pyrazole-4-carboxylic acid]	39.8	22

Compound	IC50 (human PHD2 (PHD2181-417)) [nM]	Emax at 100 µM (Hep-3B cells) [%]
CSc1cc2c(=O)[nH]c(-n3cc(C(=O)O)cn3)nc2cc1Cl [Example 158, 1-(7-Chloro-6-methylsulfanyl-4-oxo-3,4-dihydro-quinazolin-2-yl)-1H-pyrazole-4-carboxylic acid]	39.8	15
COc1ccccc1-c1ccc2nc(-n3cc(C(=O)O)cn3)[nH]c(=O)c2c1 [Example 198, 1-[6-(2-Methoxy-phenyl)-4-oxo-3,4-dihydro-quinazolin-2-yl]-1H-pyrazole-4-carboxylic acid]	20	178
O=C(O)c1cnn(-c2nc3cc(Cl)c(Oc4ccc5ccccc5c4)cc3c(=O)[nH]2)c1 [Example 54, 1-[7-Chloro-6-(naphthalen-2-yloxy)-4-oxo-3,4-dihydro-quinazolin-2-yl]-1H-pyrazole-4-carboxylic acid]	39.8	90
Cc1cccc(C)c1Oc1c(F)cc2nc(-n3cc(C(=O)O)cn3)[nH]c(=O)c2c1F [Example 63, 1-[6-(2,6-Dimethyl-phenoxy)-5,7-difluoro-4-oxo-3,4-dihydro-quinazolin-2-yl]-1H-pyrazole-4-carboxylic acid]	20	14
O=C(O)c1cnn(-c2nc3ccc(OC(F)(F)F)cc3c(=O)[nH]2)c1 [Example 15, 1-(4-Oxo-6-trifluoromethoxy-3,4-dihydro-quinazolin-2-yl)-1H-pyrazole-4-carboxylic acid]	15.8	19
O=C(O)c1cnn(-c2nc3cc(F)c(Oc4ccccc4)c(F)c3c(=O)[nH]2)c1 [Example 64, 1-(5,7-Difluoro-4-oxo-6-phenoxy-3,4-dihydro-quinazolin-2-yl)-1H-pyrazole-4-carboxylic acid]	25.1	22
Cc1ccccc1Oc1ccc2nc(-n3cc(C(=O)O)cn3)[nH]c(=O)c2c1 [Example 37, 1-(4-Oxo-6-o-tolyloxy-3,4-dihydro-quinazolin-2-yl)-1H-pyrazole-4-carboxylic acid]	25.1	78
O=C(O)c1cnn(-c2nc3ccc(Oc4cccc(C(F)(F)F)c4)cc3c(=O)[nH]2)c1 [Example 100, 1-[4-oxo-6-(3-trifluoromethyl-phenoxy)-3,4-dihydro-quinazolin-2-yl]-1H-pyrazole-4-carboxylic acid]	25.1	55
CS(=O)(=O)c1ccc2nc(-n3cc(C(=O)O)cn3)[nH]c(=O)c2c1 [Example 157, 1-(6-Methanesulfonyl-4-oxo-3,4-dihydro-quinazolin-2-yl)-1H-pyrazole-4-carboxylic acid]	31.6	17
O=C(O)c1cnn(-c2nc3ccc4c(c3c(=O)[nH]2)CCCC4)c1 [Example 144, 1-(1-Oxo-1,2,7,8,9,10-hexahydro-benzo[f]quinazolin-3-yl)-1H-pyrazole-4-carboxylic acid]	39.8	42
O=C(O)c1cnn(-c2nc3cc(F)cc(F)c3c(=O)[nH]2)c1 [Example 131, 1-(5,7-Difluoro-4-oxo-3,4-dihydro-quinazolin-2-yl)-1H-pyrazole-4-carboxylic acid]	63.1	21
O=C(O)c1cnn(-c2nc3ccc(I)cc3c(=O)[nH]2)c1 [Example 12, 1-(6-Iodo-4-oxo-3,4-dihydro-quinazolin-2-yl)-1H-pyrazole-4-carboxylic acid]	25.1	50
O=C(O)c1cnn(-c2nc3ccc(Oc4ccc(F)cc4)cc3c(=O)[nH]2)c1 [Example 32, 1-[6-(4-Fluoro-phenoxy)-4-oxo-3,4-dihydro-quinazolin-2-yl]-1H-pyrazole-4-carboxylic acid]	25.1	68
O=C(O)c1cnn(-c2nc3cccc(Cl)c3c(=O)[nH]2)c1 [Example 6, 1-(5-Chloro-4-oxo-3,4-dihydro-quinazolin-2-yl)-1H-pyrazole-4-carboxylic acid]	158	19
COc1cc2nc(-n3cc(C(=O)O)cn3)[nH]c(=O)c2c(OC)c1OC [Example 18, 1-(5,6,7-Trimethoxy-4-oxo-3,4-dihydro-quinazolin-2-yl)-1H-pyrazole-4-carboxylic acid]	316	42
O=C(O)c1cnn(-c2nc3cc(F)c(Oc4c(Cl)cccc4Cl)cc3c(=O)[nH]2)c1 [Example 50, 1-[6-(2,6-Dichloro-phenoxy)-7-fluoro-4-oxo-3,4-dihydro-quinazolin-2-yl]-1H-pyrazole-4-carboxylic acid]	31.6	67
